Read-outs that look alike come from different tables or passages of the source.
Key:
[1] = system: Alopecurus wildtype PPO (ALOMY), PPO herbicide sensitive PPO2, SEQ ID NO 2; experiment: PPO enzyme assay, dose-response (fluorescence), wildtype Alopecurus PPO2; assay type: biochemical, Alopecurus myosuroides; conditions: Table 3b; SEQ ID NO 2, WT
[2] = molecular target: Alopecurus mutant PPO (ALOMY), SEQ ID NO 2 with amino acid substitution; experiment: PPO enzyme assay, dose-response (fluorescence), mutated Alopecurus PPO2; assay type: biochemical, Alopecurus myosuroides

Compound | IC50 [1] | other results
COC(Oc1ccccc1Oc1cc(-n2c(=O)cc(C(F)(F)F)n(C)c2=O)c(F)cc1Cl)C(=O)OCc1ccncc1 (stereo not drawn) [4-pyridylmethyl 2-[2-[2-chloro-4-fluoro-5-[3-methyl-2,6-dioxo-4-(trifluoromethyl)pyrimidin-1-yl]phenoxy]phenoxy]-2-methoxy-acetate] | 0.671 nM | –
CCOC(=O)COc1ncccc1Oc1cc(-n2c(=O)cc(C(F)(F)F)n(C)c2=O)c(F)cc1Cl [S-3100, ethyl 2-[[3-[2-chloro-4-fluoro-5-[3-methyl-2,6-dioxo-4-(trifluoromethyl)pyrimidin-1-yl]phenoxy]-2-pyridyl]oxy]acetate] | 0.0645 nM | IC50 [2]: 950 nM; IC50 ([2]; listed as S-3101): 0.552 nM; IC50 ([2]; listed as S-3102): 2.37 nM; IC50 ([2]; listed as S-3103): 992 nM; IC50 ([2]; listed as S-3104): 12.1 nM
OXADIARGYL | 1.17 nM | –
C#CCN1C(=O)COc2cc(F)c(N3C(=O)C4=C(CCCC4)C3=O)cc21 [FLUMIOXAZIN, 2-(7-fluoro-3-oxo-4-prop-2-ynyl-1,4-benzoxazin-6-yl)-4,5,6,7-tetrahydroisoindole-1,3-dione] | 0.144 nM | –
CCOC(=O)C(Cl)Cc1cc(-n2nc(C)n(C(F)F)c2=O)c(F)cc1Cl (stereo not drawn) [CARFENTRAZONE-ETHYL] | 1.47 nM | –
CCOCCOC(=O)C(OC)Oc1ccccc1Oc1cc(-n2c(=O)cc(C(F)(F)F)n(C)c2=O)c(F)cc1Cl (stereo not drawn) [2-ethoxyethyl 2-[2-[2-chloro-4-fluoro-5-[3-methyl-2,6-dioxo-4-(trifluoromethyl)pyrimidin-1-yl]phenoxy]phenoxy]-2-methoxy-acetate] | 0.816 nM | –
CS(=O)(=O)NC(=O)c1cc(Oc2ccc(C(F)(F)F)cc2Cl)ccc1[N+](=O)[O-] [FOMESAFEN] | 90.3 nM | –
COC(Oc1ccccc1Oc1cc(-n2c(=O)cc(C(F)(F)F)n(C)c2=O)c(F)cc1Cl)C(=O)OC1CCCCC1 (stereo not drawn) [cyclohexyl 2-[2-[2-chloro-4-fluoro-5-[3-methyl-2,6-dioxo-4-(trifluoromethyl)pyrimidin-1-yl]phenoxy]phenoxy]-2-methoxy-acetate] | 2.99 nM | –
C#CCN1C(=O)C(F)(F)Oc2cc(F)c(N3C(=O)C4=C(CCCC4)C3=O)cc21 [2-(2,2,7-trifluoro-3-oxo-4-prop-2-ynyl-1,4-benzoxazin-6-yl)-4,5,6,7-tetrahydroisoindole-1,3-dione] | 0.243 nM | –
CCOc1cc(Oc2ccc(C(F)(F)F)cc2Cl)ccc1[N+](=O)[O-] [OXIFLUORFEN, 2-CHLORO-1-(3-ETHOXY-4-NITROPHENOXY)-4-(TRIFLUOROMETHYL)BENZENE] | 8.24 nM | –
C=CCOC(=O)C(C)(C)OC(=O)c1cc(-n2c(=O)cc(C(F)(F)F)n(C)c2=O)ccc1Cl [BUTAFENACIL] | 0.0131 nM | –
COC(Oc1ccccc1Oc1cc(-n2c(=O)cc(C(F)(F)F)n(C)c2=O)c(F)cc1Cl)C(=O)OCC(F)F (stereo not drawn) [2,2-difluoroethyl 2-[2-[2-chloro-4-fluoro-5-[3-methyl-2,6-dioxo-4-(trifluoromethyl)pyrimidin-1-yl]phenoxy]phenoxy]-2-methoxy-acetate] | 0.335 nM | –
CCOC(=O)C(C)OC(=O)c1cc(Oc2ccc(C(F)(F)F)cc2Cl)ccc1[N+](=O)[O-] (stereo not drawn) [LACTOFEN, (2-ethoxy-1-methyl-2-oxo-ethyl) 5-[2-chloro-4-(trifluoromethyl)phenoxy]-2-nitro-benzoate] | 18.7 nM | –
COC(=O)C(OC)Oc1ccccc1Oc1cc(-n2c(=O)cc(C(F)(F)F)n(C)c2=O)c(F)cc1Cl (stereo not drawn) [methyl 2-[2-[2-chloro-4-fluoro-5-[3-methyl-2,6-dioxo-4-(trifluoromethyl)pyrimidin-1-yl]phenoxy]phenoxy]-2-methoxy-acetate] | 0.194 nM | –
CCOC(=O)/C(Cl)=C/c1cc(N2C(=O)C3=C(CCCC3)C2=O)ccc1Cl [CINIDON-ETHYL, ethyl (Z)-2-chloro-3-[2-chloro-5-(1,3-dioxo-4,5,6,7-tetrahydroisoindol-2-yl)phenyl]prop-2-enoate] | 81.2 nM | –
O=C(O)c1cc(Oc2ccc(C(F)(F)F)cc2Cl)ccc1[N+](=O)[O-] [ACIFLUORFEN, 5-(2-CHLORO-4-TRIFLUOROMETHYL-PHENOXY)-2-NITRO-BENZOIC ACID] | 1140 nM | IC50 [2]: ≥ 10000 nM
C#CCN1C(=O)C(F)(F)Oc2cc(F)c(-n3c(=O)cc(C(F)(F)F)n(C)c3=O)cc21 [1-methyl-6-(trifluoromethyl)-3-(2,2,7-trifluoro-3-oxo-4-prop-2-ynyl-1,4-benzoxazin-6-yl)pyrimidine-2,4-dione] | 0.189 nM | –
COC(Oc1ccccc1Oc1cc(-n2c(=O)cc(C(F)(F)F)n(C)c2=O)c(F)cc1Cl)C(=O)OCC1(C)CC1 (stereo not drawn) [(1-methylcyclopropyl)methyl 2-[2-[2-chloro-4-fluoro-5-[3-methyl-2,6-dioxo-4-(trifluoromethyl)pyrimidin-1-yl]phenoxy]phenoxy]-2-methoxy-acetate] | 0.751 nM | –
